# Test: Reactivity of valsartan under EMR curing conditions
# Assay type: physicochemical
# Settings: mixed with dextramate, PEGDA, Irgacure; cured for 10 minutes
# Protocol: Dextramate (24.2 mL of a 23.1 w/w % solution), PEGDA (16.3 mL of a 8.6 w/w % solution), Irgacure (14 mL of a 0.5 w/w % solution), and valsartan (2.82 mL or 1.41 mL of a 24.8 w/w % solution or 2.82 mL of a 1:10 dilution of a 24.8 w/w % solution) are mixed together. The mixture is cured for 10 minutes. After curing, 100 mL of dH2O is added to the cured product to create a swelled gel.
smiles,measurement,value
CCCCC(=O)N(Cc1ccc(-c2ccccc2-c2nnn[nH]2)cc1)[C@H](C(=O)O)C(C)C [valsartan],reactivity under the curing conditions,does not exhibit reactivity
